ChEMBL document CHEMBL3885881, “DrugMatrix”

Organism: Rattus norvegicus
Assay type: toxicity, organism-based, Sprague-Dawley
Conditions: in vivo, po, route oral GAVAGE, […]; for ABSOLUTE EOSINOPHIL / ABSOLUTE LYMPHOCYTE / ABSOLUTE MONOCYTE / ABSOLUTE SEGMENTED NEUTROPHIL / BASOPHIL / EOSINOPHIL / ERYTHROCYTE COUNT / HEMATOCRIT / HEMOGLOBIN / LEUKOCYTE COUNT / LYMPHOCYTE / MEAN CORPUSCULAR HEMOGLOBIN / MEAN CORPUSCULAR HEMOGLOBIN CONCENTRATION / MEAN CORPUSCULAR VOLUME / MONOCYTE / NEUTROPHIL / NUCLEATED RED BLOOD CELLS / PLATELET COUNT: tissue Blood; for ALANINE AMINOTRANSFERASE / ALBUMIN / ALKALINE PHOSPHATASE / ASPARTATE AMINOTRANSFERASE / BLOOD UREA NITROGEN / CARBON DIOXIDE / CHLORIDE / CHOLESTEROL / CREATINE PHOSPHOKINASE / CREATININE / GLUCOSE / LACTATE DEHYDROGENASE / LIPASE / PHOSPHORUS / POTASSIUM / SODIUM / TOTAL BILIRUBIN / TOTAL PROTEIN / URIC ACID: tissue Plasma
[1] = 0 mg/kg, 6 h, vehicle control, dose level Control, time 0.25 day
[2] = 0 mg/kg, 24 h, vehicle control, dose level Control, time 1 day
[3] = 130 mg/kg, 6 h, dose level Low, time 0.25 day

Description: DrugMatrix - Regimen: Single

SMILES: CCOC(=O)C(C)(C)Oc1ccc(Cl)cc1 [CLOFIBRATE]
- ABSOLUTE EOSINOPHIL [1]: 0 CELLS/uL
- ABSOLUTE LYMPHOCYTE [1]: 8631 CELLS/uL
- ABSOLUTE MONOCYTE [1]: 171.17 CELLS/uL
- ABSOLUTE SEGMENTED NEUTROPHIL [1]: 1214.5 CELLS/uL
- BASOPHIL [1]: 0%
- EOSINOPHIL [1]: 0%
- ERYTHROCYTE COUNT [1]: 5.42 x10E6/uL
- HEMATOCRIT [1]: 34.7%
- HEMOGLOBIN [1]: 13.67 G/DL
- LEUKOCYTE COUNT [1]: 10.02 x10E3/uL
- LYMPHOCYTE [1]: 86.17%
- MEAN CORPUSCULAR HEMOGLOBIN [1]: 25.27 pg
- MEAN CORPUSCULAR HEMOGLOBIN CONCENTRATION [1]: 39.42 G/DL
- MEAN CORPUSCULAR VOLUME [1]: 64.12 fL
- MONOCYTE [1]: 1.67%
- NEUTROPHIL [1]: 12.17%
- NUCLEATED RED BLOOD CELLS [1]: 0 /100WBC
- PLATELET COUNT [1]: 1050 x10E3/uL
- ALANINE AMINOTRANSFERASE [1]: 61 u/L
- ALBUMIN [1]: 4.67 G/DL
- ALKALINE PHOSPHATASE [1]: 312.5 u/L
- ASPARTATE AMINOTRANSFERASE [1]: 117.5 u/L
- BLOOD UREA NITROGEN [1]: 8.67 mg/dL
- CARBON DIOXIDE [1]: 26.33 mmol/L
- CHLORIDE [1]: 100.5 MEQ/L
- CHOLESTEROL [1]: 72 mg/dL
- CREATINE PHOSPHOKINASE [1]: 283.33 u/L
- CREATININE [1]: 0.28 mg/dL
- GLUCOSE [1]: 172 mg/dL
- LACTATE DEHYDROGENASE [1]: 95.33 u/L
- LIPASE [1]: 10.17 u/L
- PHOSPHORUS [1]: 9.9 mg/dL
- POTASSIUM [1]: 5.75 MEQ/L
- SODIUM [1]: 142.4 MEQ/L
- TOTAL BILIRUBIN [1]: 0.3 mg/dL
- TOTAL PROTEIN [1]: 5.43 G/DL
- URIC ACID [1]: 0.73 mg/dL
- ABSOLUTE EOSINOPHIL [2]: 90.83 CELLS/uL
- ABSOLUTE LYMPHOCYTE [2]: 14725.17 CELLS/uL
- ABSOLUTE MONOCYTE [2]: 220 CELLS/uL
- ABSOLUTE SEGMENTED NEUTROPHIL [2]: 1080.67 CELLS/uL
- BASOPHIL [2]: 0%
- EOSINOPHIL [2]: 0.67%
- ERYTHROCYTE COUNT [2]: 5.3 x10E6/uL
- HEMATOCRIT [2]: 33.4%
- HEMOGLOBIN [2]: 13.4 G/DL
- LEUKOCYTE COUNT [2]: 16.12 x10E3/uL
- LYMPHOCYTE [2]: 91.17%
- MEAN CORPUSCULAR HEMOGLOBIN [2]: 25.3 pg
- MEAN CORPUSCULAR HEMOGLOBIN CONCENTRATION [2]: 40.12 G/DL
- MEAN CORPUSCULAR VOLUME [2]: 63.05 fL
- MONOCYTE [2]: 1.5%
- NEUTROPHIL [2]: 6.67%
- NUCLEATED RED BLOOD CELLS [2]: 0 /100WBC
- PLATELET COUNT [2]: 1062 x10E3/uL
- ALANINE AMINOTRANSFERASE [2]: 69 u/L
- ALBUMIN [2]: 4.33 G/DL
- ALKALINE PHOSPHATASE [2]: 269 u/L
- ASPARTATE AMINOTRANSFERASE [2]: 83.67 u/L
- BLOOD UREA NITROGEN [2]: 14 mg/dL
- CARBON DIOXIDE [2]: 29 mmol/L
- CHLORIDE [2]: 100.83 MEQ/L
- CHOLESTEROL [2]: 66.67 mg/dL
- CREATINE PHOSPHOKINASE [2]: 355 u/L
- CREATININE [2]: 0.18 mg/dL
- GLUCOSE [2]: 161.33 mg/dL
- LACTATE DEHYDROGENASE [2]: 123.33 u/L
- LIPASE [2]: 10.67 u/L
- PHOSPHORUS [2]: 8.83 mg/dL
- POTASSIUM [2]: 6.06 MEQ/L
- SODIUM [2]: 142.45 MEQ/L
- TOTAL BILIRUBIN [2]: 0.2 mg/dL
- TOTAL PROTEIN [2]: 5.72 G/DL
- URIC ACID [2]: 1.27 mg/dL
- ABSOLUTE EOSINOPHIL [3]: 53.33 CELLS/uL
- ABSOLUTE LYMPHOCYTE [3]: 12668.17 CELLS/uL
- ABSOLUTE MONOCYTE [3]: 233.17 CELLS/uL
- ABSOLUTE SEGMENTED NEUTROPHIL [3]: 1278.67 CELLS/uL
- BASOPHIL [3]: 0%
- EOSINOPHIL [3]: 0.33%
- ERYTHROCYTE COUNT [3]: 5.56 x10E6/uL
- HEMATOCRIT [3]: 34.18%
- HEMOGLOBIN [3]: 13.43 G/DL
- LEUKOCYTE COUNT [3]: 14.23 x10E3/uL
- LYMPHOCYTE [3]: 88.83%
- MEAN CORPUSCULAR HEMOGLOBIN [3]: 24.17 pg
- MEAN CORPUSCULAR HEMOGLOBIN CONCENTRATION [3]: 39.33 G/DL
- MEAN CORPUSCULAR VOLUME [3]: 61.53 fL
- MONOCYTE [3]: 1.67%
- NEUTROPHIL [3]: 9.17%
- NUCLEATED RED BLOOD CELLS [3]: 0 /100WBC
- PLATELET COUNT [3]: 1136.67 x10E3/uL
- ALANINE AMINOTRANSFERASE [3]: 40.17 u/L
- ALBUMIN [3]: 4.38 G/DL
- ALKALINE PHOSPHATASE [3]: 384.83 u/L
- ASPARTATE AMINOTRANSFERASE [3]: 76.67 u/L
- BLOOD UREA NITROGEN [3]: 7.4 mg/dL
- CARBON DIOXIDE [3]: 25 mmol/L
- CHLORIDE [3]: 101.4 MEQ/L
- CHOLESTEROL [3]: 63.33 mg/dL
- CREATINE PHOSPHOKINASE [3]: 249.67 u/L
- CREATININE [3]: 0.36 mg/dL
- GLUCOSE [3]: 139.83 mg/dL
- LACTATE DEHYDROGENASE [3]: 146.17 u/L
- LIPASE [3]: 10.2 u/L
- PHOSPHORUS [3]: 10.1 mg/dL
- POTASSIUM [3]: 5.97 MEQ/L
- SODIUM [3]: 142.94 MEQ/L
- TOTAL BILIRUBIN [3]: 0.38 mg/dL
- TOTAL PROTEIN [3]: 5.73 G/DL
- URIC ACID [3]: 0.96 mg/dL
